The values that follow come from patent publication US20220048895A1, “SUBSTITUTED BENZAZEPINE COMPOUNDS, CONJUGATES, AND USES THEREOF” (SILVERBACK THERAPEUTICS, INC., priority 2018, published 2022).

In this assay the test system is Human peripheral blood mononuclear cells (PBMC). The assay is described as follows: PBMC screening assay: TNF-α in supernatant by ELISA or HTRF. In kind it is cell-based. The conditions noted are these: TNF-α activity in supernatant of human PBMC, 24 hours incubation, 1000 to 0.000238 nM. The method, then:
Materials and general procedures. Human peripheral blood mononuclear cells (PBMC) were obtained from BenTek, frozen at 25×10^6 cell/mL in 10% DMSO (Sigma) prepared in fetal bovine serum (Gibco) and stored in liquid nitrogen. For the culture, PBMC were thawed quickly in a 37° C. water bath and diluted into pre-warmed RPMI 1640 (Lonza) supplemented with 10% fetal bovine serum, 2 mM glutamine, […] (all from Gibco) and centrifuged for 5 minutes at 500×g. PBMC were suspended into the growth media described above and cultured at a concentration of 1×10^6 cells per mL at 37° C. in a 5% CO2 incubator.
General procedure for in vitro small molecule screening. PBMC were thawed, suspended at a concentration of 1×10^6 cell/mL in growth media and 200 μL was aliquoted into each well of a 96-well plate for a total of 0.2×10^6 cells per well. PBMC were incubated for approximately 16-18 hours at 37° C. in a 5% CO2 humidified incubator. PBMC plates were centrifuged at 500×g for 5 minutes and the growth media was removed. 150 μL of twelve concentrations ranging from 1000 to 0.000238 nM of small molecules prepared in growth media were added to PBMC in duplicate and incubated for 24 hours at 37° C. in a 5% CO2 incubator. Prior to supernatant harvest, cells were spun at 500×g for 5 minutes to remove cell debris. TNF-α activity was assessed in the supernatant by ELISA (eBioscience) or HTRF (CisBio) per the manufacturer's instructions. The optical density at 450 nm and 570 nm (ELISA) or […] (HTRF) was analyzed using an Envision (Perkin Elmer) plate reader, as shown in Table 2.

The term EC50 denotes the concentration giving half of the maximal effect. High values mean weaker potency, low ones greater potency. In turn, `CCCN(CCC)C(=O)C1=Cc2ccc(-c3ccc(C(=O)N4CCNC(c5ccccc5)C4)cc3)cc2N=C(N)C1` (centres unmarked) [Compound 1.1, 2-amino-8-(4-(3-phenylpiperazine-1-carbonyl)phenyl)-N,N-dipropyl-3H-benzo[b]azepine-4-carboxamide] registered an EC50 of less than 50 nM.

Take `CCCN(CCC)C(=O)C1=Cc2ccc(-c3ccc(C(=O)N4CCN[C@H](c5ccccc5)C4)cc3)cc2N=C(N)C1` [Compound 1.2, (R)-2-amino-8-(4-(3-phenylpiperazine-1-carbonyl)phenyl)-N,N-dipropyl-3H-benzo[b]azepine-4-carboxamide]: the 50% effective concentration (EC50) is less than 50 nM.

On to `CCCN(CCC)C(=O)C1=Cc2ccc(-c3ccc(C(=O)N4CCN[C@@H](c5ccccc5)C4)cc3)cc2N=C(N)C1` [Compound 1.3, (S)-2-amino-8-(4-(3-phenylpiperazine-1-carbonyl)phenyl)-N,N-dipropyl-3H-benzo[b]azepine-4-carboxamide], for which the EC50 is less than 50 nM.

Turning to `CCCN(CCC)C(=O)C1=Cc2ccc(-c3ccc(C(=O)N4CCN(c5ccccc5)CC4)cc3)cc2N=C(N)C1` [Compound 1.4, 2-amino-8-(4-(4-phenylpiperazine-1-carbonyl)phenyl)-N,N-dipropyl-3H-benzo[b]azepine-4-carboxamide], the EC50 fell in the range of 50 to 500 nM.

In turn, `CCCN(CCC)C(=O)C1=Cc2ccc(-c3ccc(C(=O)N4CCC(O)(c5ccccc5)CC4)cc3)cc2N=C(N)C1` [Compound 1.5, 2-amino-8-(4-(4-hydroxy-4-phenylpiperidine-1-carbonyl)phenyl)-N,N-dipropyl-3H-benzo[b]azepine-4-carboxamide] came in with an EC50 of 50 to 500 nM.

As to `CCCN(CCC)C(=O)C1=Cc2ccc(-c3ccc(C(=O)N4CCCC(CO)C4)cc3)cc2N=C(N)C1` (centres unmarked) [Compound 1.6, 2-amino-8-(4-(3-(hydroxymethyl)piperidine-1-carbonyl)phenyl)-N,N-dipropyl-3H-benzo[b]azepine-4-carboxamide], the EC50 lay within 50 to 500 nM.

In turn, `CCCN(CCC)C(=O)C1=Cc2ccc(-c3ccc(C(=O)N4CCC(CO)(c5ccccc5)CC4)cc3)cc2N=C(N)C1` [Compound 1.7, 2-amino-8-(4-(4-(hydroxymethyl)-4-phenylpiperidine-1-carbonyl)phenyl)-N,N-dipropyl-3H-benzo[b]azepine-4-carboxamide] gave an EC50 greater than 500 nM.

In turn, `CCCN(CCC)C(=O)C1=Cc2ccc(-c3ccc(C(=O)N4CCc5ccccc5C4)cc3)cc2N=C(N)C1` [Compound 1.8, 2-amino-N,N-dipropyl-8-(4-(1,2,3,4-tetrahydroisoquinoline-2-carbonyl)phenyl)-3H-benzo[b]azepine-4-carboxamide] yielded an EC50 greater than 500 nM.

As to `CCCN(CCC)C(=O)C1=Cc2ccc(-c3ccc(C(=O)N4CCC(O)(c5ccccc5)C4)cc3)cc2N=C(N)C1` (centres unmarked) [Compound 1.9, 2-amino-8-(4-(3-hydroxy-3-phenylpyrrolidine-1-carbonyl)phenyl)-N,N-dipropyl-3H-benzo[b]azepine-4-carboxamide], the EC50 was 50 to 500 nM.

For `CCCN(CCC)C(=O)C1=Cc2ccc(-c3ccc(C(=O)N4CCCC4c4ccccc4)cc3)cc2N=C(N)C1` (centres unmarked) [Compound 1.10, 2-amino-8-(4-(2-phenylpyrrolidine-1-carbonyl)phenyl)-N,N-dipropyl-3H-benzo[b]azepine-4-carboxamide], the EC50 lay in the range of 50 to 500 nM.

Take `CCCN(CCC)C(=O)C1=Cc2ccc(-c3ccc(C(=O)N4CCCC4CO)cc3)cc2N=C(N)C1` (centres unmarked) [Compound 1.11, 2-amino-8-(4-(2-(hydroxymethyl)pyrrolidine-1-carbonyl)phenyl)-N,N-dipropyl-3H-benzo[b]azepine-4-carboxamide]: the concentration giving a half-maximal response (EC50) lay in the range of 50 to 500 nM.
